According to patent US20040132764A1, “Antibiotics for the treatment of infections in acidic environments” (Morphochem Aktiengesellschaft fuer Kombinatorische Chemie, priority 2002, published 2004):
≈ marks a conversion by molar mass, not a printed value. Where two headings read alike, the source gives them in different places.

Test system: bacterial strains from the Morphochem collection
Assay: MIC determination by microdilution method (NCCLS guidelines, IsoSensitest broth) with pH of the test medium varied
Assay type: cell-based
Settings: strain not named
Method: MICs (minimal inhibitory concentrations) were determined by a microdilution method following NCCLS guidelines, except that IsoSensitest broth (Oxoid; Basingstroke, UK) was used (National Committee for Clinical Laboratory Standards “Methods for Dilution Antimicrobial Susceptibility Tests for Bacteria that Grow Aerobically”, 4th ed.; Approved standard: NCCLS Document M7-A4; National Committee for Clinical Laboratory Satandars: Villanova, Pa., USA, 1997). The medium was supplemented with 3% lysed horse blood for fastidious organisms. Serial dilutions in 96-well plates were prepared with the help of a Biomek 2000 robot. The pH of the test medium was varied from 7.8 to 6.4. The bacterial strains used were from the Morphochem collection. Clinical isolates were originally obtained from the Kantonspital Basel, Switzerland, and from other European and US hospitals.
pH-dependent antibacterial activity (MIC (μg/mL) at pH): […]

[1] = pH 6.4 of test medium, read-out: pH-dependent antibacterial activity (MIC at pH) 6.4
[2] = pH 6.8 of test medium, read-out: pH-dependent antibacterial activity (MIC at pH) 6.8
[3] = pH 7.4 of test medium, read-out: pH-dependent antibacterial activity (MIC at pH) 7.4
[4] = pH 7.8 of test medium, read-out: pH-dependent antibacterial activity (MIC at pH) 7.8

Row | Compound | MIC [1] [mg/L] | MIC [2] [mg/L] | MIC [3] [mg/L] | MIC [4] [mg/L]
1 | CC(=O)NC[C@H]1CN(c2ccc(N3CCOCC3)c(F)c2)C(=O)O1 [linezolid, reference compound] | 0.5 (≈ 1.48 µM) | 0.5 (≈ 1.48 µM) | 1 (≈ 2.96 µM) | 1 (≈ 2.96 µM)
2 | CC(=O)NC[C@H]1CN(c2ccc(N3CCN(c4nc5c(cc4F)c(=O)c(C(=O)O)cn5C4CC4)CC3)c(F)c2)C(=O)O1 [Example 10] | 0.125 (≈ 0.215 µM) | 0.25 (≈ 0.429 µM) | 0.5 (≈ 0.858 µM) | 1 (≈ 1.72 µM)
3 | CC(=O)NC[C@H]1CN(c2ccc(N3CCN(c4cc5c(cc4F)c(=O)c(C(=O)O)cn5C4CC4)CC3)c(F)c2)C(=O)O1 [Example 1, 7-(4-{4-[5-(acetylamino-methyl)-2-oxo-oxazolidin-3-yl]-2-fluoro-phenyl}-piperazin-1-yl)-1-cyclopropyl-6-fluoro-4-oxo-1,4-dihydro-quinoline-3-carboxylic Acid] | 0.03 (≈ 0.0516 µM) | 0.125 (≈ 0.215 µM) | 0.25 (≈ 0.43 µM) | 0.5 (≈ 0.86 µM)
4 | CC(=O)NC[C@H]1CN(c2ccc(N[C@@H]3CCN(c4cc5c(cc4F)c(=O)c(C(=O)O)cn5C4CC4)C3)c(F)c2)C(=O)O1 [Example 4] | 0.03 (≈ 0.0516 µM) | 0.06 (≈ 0.103 µM) | 0.25 (≈ 0.43 µM) | 0.5 (≈ 0.86 µM)
